One substance from PMC3230571 (International Journal of Nanomedicine, 2011) can be followed below.

The subject of this test is rats with streptozotocin-induced diabetes. As to the kind of experiment: Hypoglycemic effect and relative bioavailability after oral administration. The test is classed as in vivo, rat. As to conditions: diabetic rats fasted 12 hours, oral 20 IU/kg, n = 6.

As for insulin, the “Hypoglycemic effect (plasma glucose relative to the initial value)” value is “did not appreciably lower the blood glucose levels”.
